From article PMC9848351, “Discovery of new pyridine-quinoline hybrids as competitive and non-competitive PIM-1 kinase inhibitors with apoptosis induction and caspase 3/7 activation capabilities” (Journal of Enzyme Inhibition and Medicinal Chemistry, 2023)

Experiments:
PIM-2 kinase = PIM-2 kinase (Homo sapiens, UniProt Q9P1W9); assay: PIM-2 kinase inhibitory activity (Promega kinase assay kit)
Text: (§15) PIM-1 and PIM-2 kinase inhibitory activity
(§16) PIM-1 and PIM-2 kinase utilizing PIM-1 and PIM-2 Kinase Assay Kit – Promega Corporation catalog #V4032, following the manufacturer’s instructions 26

[1] = test system: Colon cancer cells (Caco-2); assay: MTT anticancer activity, Caco-2; type: cell-based, human; conditions: for IC50: Homo sapiens, Caco-2, 72 h, MTT, mean ± SEM; for Caco-2 SI: selectivity index, Wi-38 versus Caco-2
Method: (§1) Anticancer effect of the above-mentioned compounds was evaluated using four human cancer cell lines. Colon cancer cells (Caco-2), myeloid leukaemia cell line (NFS-60), liver cancer cell line (HepG-2) and prostate cancer cell line (PC-3) using MTT method was used for assaying cell viability[26] (Supplementary Page S55).
(§2) All final compounds were evaluated against four human cancer cell lines namely; liver cancer (HepG2) (ATCC® HB-8065™), colon cancer (Caco-2) (ATCC® HTB-37™), leukaemia cancer (NFS-60) (ATCC® CRL-1838™), and prostate cancer (PC-3) (ATCC® CRL-1435™) using doxorubicin (Dox) as the reference drug being widely used in tumour management utilising microculture MTT assay, declared by Mosmann[26] (Table 1 in Supplementary Material, Figures 5–8).
(§3) Cytotoxicity of the tested compounds was evaluated using normal human lung fibroblast Wi-38 cell line compared to currently used anticancer drug (doxorubicin).
(§4) Firstly, Wi-38 cell line was subcultured in DMEM medium-contained 10% fetal bovine serum (FBS), then, seeded as 5x10^3 cells per well in 96-well cell culture plate and incubated at 37 °C in 5% CO 2 incubator. Serial concentrations of these compounds and doxorubicin (Dox) were incubat ed with Wi-38 cells for 72 h after 24 h for cell attachment. MTT method was used for assaying cell viability 25. Twenty microliters of 5 mg/ml MTT (Sigma, USA) was added to each well and the plate was incubated at 37 °C for 3 h. Then MTT solution was removed, 100 µl DMSO was used and the absorbance of each well was measured with a microplate reader ( BMG LabTech, Germany) at 570 nm. The effective concentration (IC 50) and safe dose (EC100) values of the tested compounds that cause 50% and 100% cell viability were estimated by the Graphpad Instat software.
(§5) Determination of the anticancer activity
(§6) Anticancer effect of the above-mentioned compounds was evaluated using four human cancer cell lines. Colon cancer cells (Caco-2) were maintained in DMEM (Lonza, USA) containing 10% FBS while myeloid leukemia cell line (NFS-60), liver cancer cell line (HepG-2) and prostate cancer cell line (PC-3) were cultured in RPMI-1640 (Lonza, USA) supplemented with 10% FBS. All cancer cells (5x10^3 cells/well) were seeded in sterile 96-well plates. After 24h, serial concentrations of the tested compounds and Dox were incubated with four cancer cell lines for 72 h at 37 °C in 5% CO2 incubator. MTT method was done as described above. The Graphpad Instat software was used for calculating the half maximal inhibitory concentration (IC50) values. Furthermore, phase contrast inverted microscope with a digital camera (Olympus, Japan) was used for investigating […]
(§7) safest anticancer compounds. […]

[2] = test system: prostate cancer cell line (PC-3); assay: MTT anticancer activity, PC-3; type: cell-based, human; conditions: Homo sapiens, 72 h, PC-3, 72 h, mean ± SEM
Method: as §1
as §2, with “5–8). […]” for “5–8).”
(§8) MTT method was used for assaying cell viability 25. Twenty microliters of 5 mg/ml MTT (Sigma, USA) was added to each well and the plate was incubated at 37 °C for 3 h. Then MTT solution was removed, 100 µl DMSO was used and the absorbance of each well was measured with a microplate reader ( BMG LabTech, Germany) at 570 nm. The effective concentration (IC 50) and safe dose (EC100) values of the tested compounds that cause 50% and 100% cell viability were estimated by the Graphpad Instat software.
as §5, §6, §7

[3] = test system: liver cancer cell line (HepG-2); assay: MTT anticancer activity, HepG-2; type: cell-based, human; conditions: Homo sapiens, HepG2; HepG-2, 72 h, MTT; mean ± SEM
Method: as §1
as §2, with “5–8). […]” for “5–8).”
as §8, §5, §6, §7

[4] = test system: normal human lung fibroblast Wi-38 cell line; assay: MTT cytotoxicity on normal cells; type: cell-based; conditions: Wi-38, 72 h, MTT, mean ± SEM; for EC50: Homo sapiens, 50% cell viability; for Wi-38 EC100: safe dose, 100% cell viability
Method: Cytotoxicity of the tested compounds was evaluated using normal human lung fibroblast Wi-38 cell line compared to currently used anticancer drug (doxorubicin) using MTT method was used for assaying cell viability[26] (Supplementary Page S55).
Cytotoxicity test is one of the biological evaluations and screening tests that use human normal and cancer cells in-vitro to observe the effect of the studied compounds on their growth using MTT-based cytotoxicity. Microculture MTT method[26] was used to determine cytotoxic activity of the newly synthesised compounds against normal human lung fibroblast (Wi-38) using doxorubicin (Dox) as standard anticancer drug. The highest IC50 and EC100 values illustrate that the compounds were safe on the proliferation of normal human cells. […]. page 47:
as §3
as §4, with “software. […]” for “software.”

[5] = test system: myeloid leukaemia cell line (NFS-60); assay: MTT anticancer activity, NFS-60; type: cell-based; conditions: NFS-60, 72 h, MTT; mean ± SEM
Method: as §1
as §2, with “5–8). […]” for “5–8).”
as §8, §5, §6, §7

PC-3 = assay: Flow cytometric annexin V/PI analysis of apoptosis, PC-3; type: cell-based, human; conditions: IC50 of compound, 72 h, mean ± SEM
Method: (§9) The apoptosis-dependent […] was determined by quantification of annexin-stained apoptotic cells using the FITC signal detector (FL1) against the phycoerythrin emission signal detector (FL2) (Supplementary Page S55). […]
(§10) MTT method was used for assaying cell viability 25. Twenty microliters of 5 mg/ml MTT (Sigma, USA) was added to each well and the plate was incubated at […]
(§11) 37 °C for 3 h. […]
(§12) Graphpad Instat software.
as §5
as §6, with “values.” for “values. Furthermore, phase contrast inverted microscope with a digital camera (Olympus, Japan) was used for investigating”
(§13) Flow cytometric analysis of apoptosis
(§14) Caco-2, PC-3 and NFS-60 cell lines. After trypsinization, the untreated and treated cells were incubated with annexin V/PI for 15 min. Then cells were fixed and incubated with streptavidin-fluorescein (5 µg/mL) for 15 min. The apoptosis-dependent anticancer effect was determined by quantification of annexin-stained apoptotic cells using the FITC signal detector (FL1) against the phycoerythrin emission signal detector (FL2). […]

PIM-1 kinase [6] = molecular target: T1, PIM-1 kinase (Homo sapiens, UniProt P11309); assay: PIM-1 kinase inhibitory activity (Promega kinase assay kit)
Text: as §15, §16

PIM-1 kinase [7] = molecular target: T1, PIM-1 kinase; assay: Mechanism of PIM-1 kinase inhibition, Lineweaver–Burk double-reciprocal plot; type: biochemical; parameters: purchased Promega Corporation #V4032
NFS-60 = assay: Flow cytometric annexin V/PI analysis of apoptosis, NFS-60; type: cell-based, human; conditions: IC50 of compound, 72 h, mean ± SEM
Method: as §9, §10, §11, §12, §5
as §6, with “values.” for “values. Furthermore, phase contrast inverted microscope with a digital camera (Olympus, Japan) was used for investigating”
as §13, §14

HepG-2 = assay: Flow cytometric annexin V/PI analysis of apoptosis, HepG-2; type: cell-based, human; conditions: IC50 of compound, 72 h, mean ± SEM

T1 sequence (P11309 whole entry): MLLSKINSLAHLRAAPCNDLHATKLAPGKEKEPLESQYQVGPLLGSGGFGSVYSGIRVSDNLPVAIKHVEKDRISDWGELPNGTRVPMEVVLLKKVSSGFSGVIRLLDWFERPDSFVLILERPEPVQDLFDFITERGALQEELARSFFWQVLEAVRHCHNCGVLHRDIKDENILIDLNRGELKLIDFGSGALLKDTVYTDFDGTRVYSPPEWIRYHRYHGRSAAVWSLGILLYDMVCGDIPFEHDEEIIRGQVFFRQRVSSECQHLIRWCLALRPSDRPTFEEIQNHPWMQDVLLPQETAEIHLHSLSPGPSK
Chain of PIM-2 kinase (Q9P1W9 whole entry): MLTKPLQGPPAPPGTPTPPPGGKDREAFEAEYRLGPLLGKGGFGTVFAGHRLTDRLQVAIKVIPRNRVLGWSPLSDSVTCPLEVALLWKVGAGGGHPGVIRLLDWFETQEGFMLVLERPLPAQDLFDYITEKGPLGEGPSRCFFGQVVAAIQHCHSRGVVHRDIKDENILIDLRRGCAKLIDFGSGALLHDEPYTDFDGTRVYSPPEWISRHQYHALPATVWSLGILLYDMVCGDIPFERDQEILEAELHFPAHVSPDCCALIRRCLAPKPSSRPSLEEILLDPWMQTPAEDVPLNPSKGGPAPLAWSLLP

SMILES	IC50 (PIM-2 kinase)	IC50 [1]	Caco-2 SI [1]	IC50 [2]	IC50 [3]	EC50 [4]	Wi-38 EC100 [4]	melting point	IC50 [5]	Caco-2 LE ([1]; ligand efficiency from IC50 and number of heavy atoms)	Caco-2 LLE ([1]; ligand lipophilic efficiency, potency in terms of lipophilicity)	total percentage of the apoptotic cell population, PC-3 (PC-3)	IC50 (PIM-1 kinase [6])	mechanism of PIM-1 kinase inhibition (PIM-1 kinase [7])	Vmax compared with control (PIM-1 kinase [7]; Y-intercept)	total percentage of the apoptotic cell population, NFS-60 (NFS-60)	total percentage of the apoptotic cell population, HepG-2 (HepG-2)
O=c1c(O)c(-c2ccc(O)c(O)c2)oc2cc(O)cc(O)c12 [Quercetin, reference compound]	610 nM	–	–	–	–	–	–	–	–	–	–	–	–	–	–	–	–
COc1ccc2nc(N3CCOCC3)c(-c3cc(-c4cccc(O)c4)nc(OCC(=O)Nc4ccc(Cl)cc4)c3C#N)cc2c1 [11h, N-(4-Chlorophenyl)-2-((3-cyano-6-(3-hydroxyphenyl)-4-(6-methoxy-2-morpholin-4-yl-quinolin-3-yl)pyridin-2-yl)oxy)acetamide]	–	82.9 ± 3 nM	2.002	70.9 ± 0.1 nM	74 ± 2 nM	166 ± 3 nM	0.0182 ± 0.001 µM	230 to 232 °C	78.1 ± 7 nM	–	–	–	–	–	–	–	–
COc1ccc2nc(N3CCCCC3)c(-c3cc(-c4cccc(O)c4)nc(S)c3C#N)cc2c1 [6e, 6-(3-Hydroxyphenyl)-4-(6-methoxy-2-(piperidin-1-yl)quinolin-3-yl)-2-mercaptopyridine-3-carbonitrile]	1490 nM	27 ± 2 nM	5.741	42.9 ± 3 nM	12.2 ± 0.1 nM	155 ± 3 nM	0.0277 ± 0.0001 µM	–	53.9 ± 0.1 nM	0.30	2.73	68.81 ± 0.49%	1100 nM	competitive inhibitors	the same Vmax in comparison with control	68.385 ± 0.54%	69.02 ± 0.18%
N#Cc1c(-c2cc3cc(Cl)ccc3[nH]c2=O)cc(-c2cccc(O)c2)nc1S [14b, 4-(6-Chloro-2-oxo-1,2-dihydroquinolin-3-yl)-6-(3-hydroxyphenyl)-2-mercaptopyridine-3-carbonitrile]	–	146 ± 19 nM	1.342	140 ± 4 nM	125 ± 2 nM	196 ± 12 nM	0.153 ± 0.005 µM	227 to 230 °C	135 ± 3 nM	–	–	–	–	–	–	–	–
N#Cc1c(-c2cc3ccccc3[nH]c2=O)cc(-c2cccc(O)c2)nc1N [15a, 2-Amino-6-(3-hydroxyphenyl)-4-(2-oxo-1,2-dihydroquinolin-3-yl)pyridine-3-carbonitrile]	–	191 ± 19 nM	1.058	242 ± 37 nM	108 ± 7 nM	202 ± 3 nM	0.0663 ± 0.003 µM	> 300 °C	247 ± 16 nM	–	–	–	–	–	–	–	–
COc1ccc2nc(N3CCOCC3)c(-c3cc(-c4cccc(O)c4)nc(OCC(=O)Nc4ccccc4)c3C#N)cc2c1 [11g, 2-((3-Cyano-6-(3-hydroxyphenyl)-4-(6-methoxy-2-morpholin-4-yl-quinolin-3-yl)pyridin-2-yl)oxy)-N-phenylacetamide]	–	62.6 ± 1 nM	2.971	83.9 ± 3 nM	62.8 ± 1 nM	186 ± 10 nM	0.0450 ± 0.005 µM	269 to 270 °C	103 ± 9 nM	–	–	–	–	–	–	–	–
